Read-outs that look alike come from different tables or passages of the source.
How the values were obtained:
HBeAg = assay: PHH natural infection assay, HBeAg (alphalisa); type: cell-based, HBV
Procedure: (§1) Detailed procedures regarding primary human hepatocyte (PHH) HBV natural infection assay are described as below. One tube of frozen PHH (10 million cells) is thawed in 37° C. water bath and then transferred to 20 mL of PHH thawing medium (Sigma, InVitroGRO HT Medium, Cat. S03319) with gently mixing. The cells were then centrifuged at […] for 5 min, the supernatant was discarded and the tube was refilled with 25 mL of PHH plating medium (Sigma, InVitroGRO CP Medium, Cat. S03317). The tube was shaken very gently to re-suspend all cells, and then 50 μL of cells were transferred to each well 384-well collagen I coated plate with appropriate liquid handling equipment, e.g. Integra VIAFLO384 or Agilent Bravo. The cells were then cultured for 24 hours in a cell incubator. For HBV infection, after PHH attachment on the culture plate, the plating medium was removed and replenished with PHH culture medium containing HBV virus. The PHH culture medium was prepared with Dulbecco's Modified Eagle Medium (DMEM)/F12 (1:1 in volume ratio) containing 10% fetal bovine serum (Gibco, Cat. 10099141), 5 ng/mL human epidermal growth factor (Gibco, Cat.PHG0311L), 20 ng/mL dexamethasone (Sigma, Cat.D4902-100 mg), 250 ng/mL human recombinant insulin (Gibco, Cat.41400045) and 100 U/mL penicillin. HBV virus at 200 genome equivalent (GE) per cell with 4% PEG8000 (Sigma, Cat.P1458) containing culture medium were added to the PHH culture medium for infection. The cells were then cultured for 24 hours in cell incubator. Then the cell culture supernatant was removed. The HBV-infected PHH were cultured with sandwich culture method with PHH culture medium containing […] and 0.25 mg/mL matrix gel for 72 hours. The supernatant was then refreshed with PHH culture medium containing different concentrations of testing compounds for two times with 72-hour interval. At the end of treatment, the supernatant was collected for viral markers measurements, including HBsAg, HBeAg, HBV DNA and cytotoxicity. HBsAg and HBeAg were detected using alphalisa method using their specific antibodies. For HBV DNA detection, HBV DNA Quantitative Fluorescence Diagnostic Kit (Sansure Biotech Inc.) was used following the manufacture's protocol. Cytotoxicity was determined using Cell Counting Kit-8 (CCK8, Dojindo Molecular Technologies, Inc.).
(§2) The compounds of the present invention were tested for their capacity to inhibit HBsAg and HBeAg as described herein.

[1] = Cytotoxicity in PHH natural infection assay (Cell Counting Kit-8); type: cell-based; conditions: HBV-infected primary human hepatocytes, CCK8
Procedure: as §1

HBsAg = assay: PHH natural infection assay, HBsAg (alphalisa); type: cell-based, HBV
Procedure: as §1, §2

[2] = read-out: HBeAg IC50, HBV-infected primary human hepatocytes, supernatant, alphalisa
[3] = read-out: HBsAg IC50, HBV-infected primary human hepatocytes, supernatant, alphalisa
[4] = Hepatitis B virus, Hepatocyte, read-out: HBeAg IC50, HBV-infected primary human hepatocytes, supernatant, alphalisa
[5] = Hepatitis B virus, Hepatocyte, read-out: HBsAg IC50, HBV-infected primary human hepatocytes, supernatant, alphalisa

SMILES: [H][C@]1(NC(=O)C2CCS(=O)(=O)CC2)C[C@]2(C1)C[C@]([H])(c1nc3cc(Cl)ccc3o1)C2 (single isomer, unassigned) [Example 82a, (Ra)—N-[6-(5-chloro-1,3-benzoxazol-2-yl)spiro[3.3]heptan-2-yl]-1,1-dioxo-thiane-4-carboxamide]
- IC50 (HBeAg; [2]): 5.13 µM
- CC50 at 144 h [1]: > 100 µM
- IC50 (HBsAg; [3]): 6.57 µM

SMILES: [H][C@]1(NC(=O)C2CCS(=O)(=O)CC2)C[C@@]2(C1)C[C@]([H])(c1nc3cc(Cl)ccc3o1)C2 (single isomer, unassigned) [Example 82b, (Sa)—N-[6-(5-chloro-1,3-benzoxazol-2-yl)spiro[3.3]heptan-2-yl]-1,1-dioxo-thiane-4-carboxamide]
- IC50 (HBeAg; [2]): 1.47 µM
- CC50 at 144 h [1]: > 100 µM
- IC50 (HBsAg; [3]): 2.04 µM

SMILES: [H][C@]1(NC(=O)c2ccnc(S(=O)(=O)C3CC3)c2)C[C@]2(C1)C[C@]([H])(c1nc3cc(Cl)ccc3o1)C2 (single isomer, unassigned) [Example 84a, (Ra)—N-[6-(5-chloro-1,3-benzoxazol-2-yl)spiro[3.3]heptan-2-yl]-2-cyclopropylsulfonyl-pyridine-4-carboxamide]
- IC50 (HBeAg; [2]): 0.13 µM
- CC50 at 144 h [1]: 84.3 µM
- IC50 (HBsAg; [3]): 0.07 µM

SMILES: [H][C@]1(NC(=O)c2ccnc(S(=O)(=O)C3CC3)c2)C[C@@]2(C1)C[C@]([H])(c1nc3cc(Cl)ccc3o1)C2 (single isomer, unassigned) [Example 84b, (Sa)—N-[6-(5-chloro-1,3-benzoxazol-2-yl)spiro[3.3]heptan-2-yl]-2-cyclopropylsulfonyl-pyridine-4-carboxamide]
- IC50 (HBeAg; [2]): 1.61 µM
- CC50 at 144 h [1]: > 10 µM
- IC50 (HBsAg; [3]): 1.9 µM

SMILES: [H][C@]1(NC(=O)c2ccnc(S(C)(=O)=O)c2)C[C@]2(C1)C[C@]([H])(c1nc3cc(Cl)ccc3o1)C2 (single isomer, unassigned) [Example 87-a, (Ra)—N-[6-(5-chloro-1,3-benzoxazol-2-yl)spiro[3.3]heptan-2-yl]-2-methylsulfonyl-pyridine-4-carboxamide]
- IC50 (HBeAg; [2]): 0.22 µM
- CC50 at 144 h [1]: > 10 µM
- IC50 (HBsAg; [3]): 0.2 µM

SMILES: [H][C@]1(NC(=O)c2ccnc(S(C)(=O)=O)c2)C[C@@]2(C1)C[C@]([H])(c1nc3cc(Cl)ccc3o1)C2 (single isomer, unassigned) [Example 87-b, (Sa)—N-[6-(5-chloro-1,3-benzoxazol-2-yl)spiro[3.3]heptan-2-yl]-2-methylsulfonyl-pyridine-4-carboxamide]
- IC50 (HBeAg; [2]): 3.29 µM
- CC50 at 144 h [1]: > 10 µM
- IC50 (HBsAg; [3]): 3.68 µM

SMILES: [H][C@@]1(C(=O)N[C@]2([H])C[C@@]3(C2)C[C@@]([H])(c2nc4cc(Cl)ccc4o2)C3)CC(=O)N(C)C1 (single isomer, unassigned) [Example 94c]
- IC50 (HBeAg; [4]): 0.61 µM
- CC50 at 144 h [1]: > 100 µM
- IC50 (HBsAg; [5]): 1.24 µM

SMILES: [H][C@]1(C(=O)N[C@]2([H])C[C@@]3(C2)C[C@@]([H])(c2nc4cc(Cl)ccc4o2)C3)CC(=O)N(C)C1 (single isomer, unassigned) [Example 94d]
- IC50 (HBeAg; [4]): 1.46 µM
- CC50 at 144 h [1]: > 100 µM
- IC50 (HBsAg; [5]): 2.57 µM

SMILES: O=C(NC1CC2(C1)CC(c1nc3cc(Cl)ccc3o1)C2)c1ccccn1 (stereo not drawn) [Example 1, N-[6-(5-chloro-1,3-benzoxazol-2-yl)spiro[3.3]heptan-2-yl]pyridine-2-carboxamide]
- IC50 (HBeAg; [4]): 7.89 µM
- CC50 at 144 h [1]: 74.8 µM
- IC50 (HBsAg; [5]): 9.75 µM

SMILES: O=C(NC1CC2(C1)CC(c1nc3cc(Cl)ccc3o1)C2)c1cccnc1 (stereo not drawn) [Example 2, N-[6-(5-chloro-1,3-benzoxazol-2-yl)spiro[3.3]heptan-2-yl]pyridine-3-carboxamide]
- IC50 (HBeAg; [4]): 5.25 µM
- CC50 at 144 h [1]: 68.3 µM
- IC50 (HBsAg; [5]): 6.2 µM

SMILES: O=C(NC1CC2(C1)CC(c1nc3cc(Cl)ccc3o1)C2)c1ccncc1 (stereo not drawn) [Example 3, N-[6-(5-chloro-1,3-benzoxazol-2-yl)spiro[3.3]heptan-2-yl]pyridine-4-carboxamide]
- IC50 (HBeAg; [4]): 4.39 µM
- CC50 at 144 h [1]: > 100 µM
- IC50 (HBsAg; [5]): 8.19 µM

SMILES: Cc1cc(C(=O)NC2CC3(C2)CC(c2nc4cc(Cl)ccc4o2)C3)ccn1 (stereo not drawn) [Example 4, N-[6-(5-chloro-1,3-benzoxazol-2-yl)spiro[3.3]heptan-2-yl]-2-methyl-pyridine-4-carboxamide]
- IC50 (HBeAg; [4]): 4.59 µM
- CC50 at 144 h [1]: > 10 µM
- IC50 (HBsAg; [5]): 5.51 µM

SMILES: O=C(NC1CC2(C1)CC(c1nc3cc(Cl)ccc3o1)C2)c1ccnc(NC2COC2)c1 (stereo not drawn) [Example 5, N-[6-(5-chloro-1,3-benzoxazol-2-yl)spiro[3.3]heptan-2-yl]-2-(oxetan-3-ylamino)pyridine-4-carboxamide]
- IC50 (HBeAg; [4]): 5.42 µM
- CC50 at 144 h [1]: > 10 µM
- IC50 (HBsAg; [5]): 7.19 µM

SMILES: CCN(CC)c1cc(C(=O)NC2CC3(C2)CC(c2nc4cc(Cl)ccc4o2)C3)ccn1 (stereo not drawn) [Example 6, N-[6-(5-chloro-1,3-benzoxazol-2-yl)spiro[3.3]heptan-2-yl]-2-(diethylamino)pyridine-4-carboxamide]
- IC50 (HBeAg; [4]): 4.87 µM
- CC50 at 144 h [1]: > 10 µM
- IC50 (HBsAg; [5]): 6.56 µM

SMILES: CCN(C)c1cc(C(=O)NC2CC3(C2)CC(c2nc4cc(Cl)ccc4o2)C3)ccn1 (stereo not drawn) [Example 7, N-[6-(5-chloro-1,3-benzoxazol-2-yl)spiro[3.3]heptan-2-yl]-2-[ethyl(methyl)amino]pyridine-4-carboxamide]
- IC50 (HBeAg; [4]): 4.34 µM
- CC50 at 144 h [1]: > 10 µM
- IC50 (HBsAg; [5]): 4.19 µM

SMILES: O=C(NC1CC2(C1)CC(c1nc3cc(Cl)ccc3o1)C2)c1ccnc(N2CCCCC2)c1 (stereo not drawn) [Example 8, N-[6-(5-chloro-1,3-benzoxazol-2-yl)spiro[3.3]heptan-2-yl]-2-(1-piperidyl)pyridine-4-carboxamide]
- IC50 (HBeAg; [4]): 4.05 µM
- CC50 at 144 h [1]: > 10 µM
- IC50 (HBsAg; [5]): 4.73 µM

SMILES: O=C(NC1CC2(C1)CC(c1nc3cc(Cl)ccc3o1)C2)c1ccnc(N2CCOCC2)c1 (stereo not drawn) [Example 9, N-[6-(5-chloro-1,3-benzoxazol-2-yl)spiro[3.3]heptan-2-yl]-2-morpholino-pyridine-4-carboxamide]
- IC50 (HBeAg; [4]): 4.37 µM
- CC50 at 144 h [1]: > 10 µM
- IC50 (HBsAg; [5]): 3.83 µM

SMILES: O=C(NC1CC2(C1)CC(c1nc3cc(Cl)ccc3o1)C2)c1ccnc(NC2CC2)c1 (stereo not drawn) [Example 10, N-[6-(5-chloro-1,3-benzoxazol-2-yl)spiro[3.3]heptan-2-yl]-2-(cyclopropylamino)pyridine-4-carboxamide]
- IC50 (HBeAg; [4]): 3.92 µM
- CC50 at 144 h [1]: > 10 µM
- IC50 (HBsAg; [5]): 3.77 µM

SMILES: CN(C)c1cc(C(=O)NC2CC3(C2)CC(c2nc4cc(Cl)ccc4o2)C3)ccn1 (stereo not drawn) [Example 11, N-[6-(5-chloro-1,3-benzoxazol-2-yl)spiro[3.3]heptan-2-yl]-2-(dimethylamino)pyridine-4-carboxamide]
- IC50 (HBeAg; [4]): 2.67 µM
- CC50 at 144 h [1]: > 100 µM
- IC50 (HBsAg; [5]): 2.85 µM

SMILES: CC(C)N(C)c1cc(C(=O)NC2CC3(C2)CC(c2nc4cc(Cl)ccc4o2)C3)ccn1 (stereo not drawn) [Example 12, N-[6-(5-chloro-1,3-benzoxazol-2-yl)spiro[3.3]heptan-2-yl]-2-[isopropyl(methyl)amino]pyridine-4-carboxamide]
- IC50 (HBeAg; [4]): 1.55 µM
- CC50 at 144 h [1]: > 10 µM
- IC50 (HBsAg; [5]): 2.03 µM

SMILES: O=C(NC1CC2(C1)CC(c1nc3cc(Cl)ccc3o1)C2)c1ccnc(N2CCCC2=O)c1 (stereo not drawn) [Example 13, N-[6-(5-chloro-1,3-benzoxazol-2-yl)spiro[3.3]heptan-2-yl]-2-(2-oxopyrrolidin-1-yl)pyridine-4-carboxamide]
- IC50 (HBeAg; [4]): 3.94 µM
- CC50 at 144 h [1]: > 10 µM
- IC50 (HBsAg; [5]): 3.75 µM
